# ChEMBL document CHEMBL5370528, “Synthesis-accessibility-oriented design of c-Jun N-terminal kinase 1 inhibitor” (Eur J Med Chem, 2023)
# Active and inactive are the calls of the source. The rule behind the calls is not given here.
# Tests used:
# Mus musculus [1] = assay: Anti-fibrotic activity in bleomycin-induced C57BL/6 mouse model of pulmonary fibrosis assessed as increase in respiratory function by measuring minute volume at 25 to 75 mg/kg, po administered twice a day for 3 weeks by spirometry analysis; assay type: functional, organism-based; details: dose 25-75 mg/kg
# Mus musculus [2] = assay: Anti-fibrotic activity in bleomycin-induced C57BL/6 mouse model of pulmonary fibrosis assessed as reduction in alveolar space collapse at 25 to 75 mg/kg, po administered twice a day for 3 weeks by Masson's trichome staining based analysis; assay type: functional, organism-based; details: dose 25-75 mg/kg
# [3] = molecular target: c-Jun N-terminal kinase, JNK (Homo sapiens) (UniProt P45983+P53779+P45984); assay: Inhibition of JNK in human NCI-H1299 cells assessed as inhibition of anisomycin-activated c-Jun phosphorylation preincubated for 1 hrs followed by anisomycin activation for 1 hrs by Western blot analysis; assay type: cell-based; details: dose 2-50 µM, time 2.0 hrs
# [4] = molecular target: Mitogen-activated protein kinase 8 (Homo sapiens, UniProt P45983); assay: Inhibition of N-terminal GST-tagged recombinant full length human JNK1 expressed in baculovirus infected Sf9 insect cells using IPTTPITTTYFFFKKK as substrate at 1 uM incubated for 60 mins in the presence of ATP by ADP-Glo reagent based luminescence assay relative to control
# Chain of Mitogen-activated protein kinase 8 (P45983 whole entry): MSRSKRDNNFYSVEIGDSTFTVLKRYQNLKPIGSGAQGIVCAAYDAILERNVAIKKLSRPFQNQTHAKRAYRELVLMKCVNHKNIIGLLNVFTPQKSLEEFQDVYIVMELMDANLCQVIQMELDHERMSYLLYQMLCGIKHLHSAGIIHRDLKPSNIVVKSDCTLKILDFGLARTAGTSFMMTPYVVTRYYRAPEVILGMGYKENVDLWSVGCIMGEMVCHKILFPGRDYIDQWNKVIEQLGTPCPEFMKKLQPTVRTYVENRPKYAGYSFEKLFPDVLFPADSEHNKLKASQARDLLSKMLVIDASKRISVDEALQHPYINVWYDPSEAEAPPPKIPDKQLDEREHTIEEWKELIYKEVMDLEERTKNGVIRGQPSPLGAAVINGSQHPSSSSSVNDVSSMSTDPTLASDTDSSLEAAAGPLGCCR
# [5] = AUC(0 to infinity) in Sprague-Dawley rat at 5 mg/kg, iv by HPLC-UV analysis; assay type: ADME, organism-based; parameters: dose 5 mg/kg, route iv; details: in vivo
# Mus musculus [6] = assay: Anti-fibrotic activity in bleomycin-induced C57BL/6 mouse model of pulmonary fibrosis assessed as alleviation of alveolar collapse in lungs at 25 to 75 mg/kg, po administered twice a day for 3 weeks by H&E staining based analysis; assay type: functional, organism-based; details: dose 25-75 mg/kg
smiles,measurement,setting,value
CC(C)(C)CNc1ncc(Br)c(Nc2ccccc2C(N)=O)n1,Activity,Mus musculus [1],Active
same,Activity,Mus musculus [2],Active
same,inhibition,[3],Dose-Dependent Effect
same,inhibition,[4],99%
same,AUC(0-inf),[5],868 ng·h/mL
same,Activity,Mus musculus [6],Active
